Experimental data as given in patent US7811797B2, “α-isomaltosylglucosaccharide-forming enzyme, process and uses of the same” (Kabushiki Kaisha Hayashibara Seibutsu Kagaku Kenkyujo, priority 2000, dated 2010).
Read-outs that look alike come from different tables or passages of the source. Each block holds one compound with its values, some of them ahead of it.

How the values were obtained:
[1] = tested on: α-isomaltosyl-transferring enzyme; assay: Influence of metal ions on the activity of α-isomaltosyl-transferring enzyme (Strain N75); type: biochemical, Bacillus globisporus N75; conditions: for Relative activity (%): 1 mM of each metal-ion; for influence on the enzyme activity, in words: 1 mM
Experimental: (§1) The α-isomaltosyl-transferring enzyme was assayed for enzymatic activity by dissolving panose in 100 mM acetate buffer (pH 6.0) to give a concentration of 2% (w/v) for a substrate solution, adding a 0.5 ml of an enzyme solution to 0.5 ml of the substrate solution, enzymatically reacting the mixture solution at 35° C. for 30 min, suspending the reaction mixture by boiling for 10 min, and quantifying glucose, among the cyclotetrasaccharide and glucose formed in the reaction mixture, by the glucose oxidase method. One unit activity of the α-isomaltosyl-transferring enzyme is defined as the enzyme amount that forms one micromole of glucose per minute under the above enzymatic reaction conditions. Throughout the specification, the enzymatic activity of the α-isomaltosyl-transferring enzyme means the unit(s) assayed as above.
(§2) The influence of metal ions on the activity of α-isomaltosyl-transferring enzyme was examined in the presence of 1 mM of each metal-ion according to the assay for the enzyme activity.

[2] = tested on: α-isomaltosylglucosaccharide-forming enzyme; assay: Influence of metal ions on the activity of α-isomaltosylglucosaccharide-forming enzyme (Strain A19); type: biochemical, Arthrobacter globiformis A19; conditions: for Relative activity (%): 1 mM of each metal-ion
[3] = tested on: α-isomaltosyl-transferring enzyme; assay: Influence of metal ions on the activity of α-isomaltosyl-transferring enzyme (Strain S1); type: biochemical, Arthrobacter ramosus S1; conditions: for Relative activity (%): 1 mM of each metal-ion
Experimental: as §1, §2

[4] = tested on: α-isomaltosyl-transferring enzyme; type: biochemical, Bacillus globisporus C11; conditions: 1 mM of each metal-ion
Experimental: as §1, §2

[5] = tested on: α-isomaltosyl-transferring enzyme; assay: Influence of metal ions on the activity of α-isomaltosyl-transferring enzyme (Strain C9); type: biochemical, Bacillus globisporus C9; conditions: for Relative activity (%): 1 mM of each metal-ion; for influence on the enzyme activity, in words: 1 mM
Experimental: as §1, with “above. […]” for “above.”

[6] = tested on: α-isomaltosylglucosaccharide-forming enzyme; assay: Influence of metal ions on the activity of α-isomaltosylglucosaccharide-forming enzyme (Strain C11); type: biochemical, Bacillus globisporus C11; conditions: for influence on the enzyme activity, in words: 1 mM; for Relative activity (%): 1 mM of each metal-ion
Experimental: (§3) One unit activity of the α-isomaltosylglucosaccharide-forming enzyme is defined as the enzyme amount that forms one micromole of maltose per minute under the above enzymatic reaction conditions. Throughout the specification, the enzymatic activity of the α-isomaltosylglucosaccharide-forming enzyme means the unit(s) assayed as above.
The influence of metal ions on the activity of α-isomaltosylglucosaccharide forming enzyme was examined in the presence of 1 mM of each metal-ion according to the assay for the enzyme activity.

[7] = tested on: α-isomaltosylglucosaccharide-forming enzyme; assay: Influence of metal ions on the activity of α-isomaltosylglucosaccharide-forming enzyme (Strain C9); type: biochemical, Bacillus globisporus C9; conditions: for Relative activity (%): 1 mM of each metal-ion
Experimental: as §3
(§4) The influence of metal ions on the activity of α-isomaltosylglucosaccharide-forming enzyme was examined in the presence of 1 mM of each metal-ion according to the assay for the enzyme activity.

[8] = tested on: α-isomaltosylglucosaccharide-forming enzyme; assay: Influence of metal ions on the activity of α-isomaltosylglucosaccharide-forming enzyme (Strain N75); type: biochemical, Bacillus globisporus N75; conditions: for Relative activity (%): 1 mM of each metal-ion; for influence on the enzyme activity, in words: 1 mM
Experimental: as §3, §4

[9] = tested on: α-isomaltosylglucosaccharide-forming enzyme; assay: Action on saccharides (substrates), Enzyme of Strain A19; type: biochemical, Arthrobacter globiformis A19; design: key: −: it showed no change; +: it showed a slight reduction of the color spot of the substrate and the formation of other reaction product; ++: it showed a high reduction of the color spot of the substrate and the formation of other reaction product; +++: it showed a substantial disappearance of the substrate spot and the formation of other reaction product; conditions: two units/g substrate, substrate 2% (w/v), 30° C., pH 8.4, 24 hours, TLC
Experimental: (§5) It was tested whether saccharides can be used as substrates for the α-isomaltosylglucosaccharide-forming enzyme. For the purpose, a solution of maltose, maltotriose, maltotetraose, maltopentaose, maltohexaose, maltoheptaose, isomaltose, isomaltotriose, panose, isopanose, trehalose, kojibiose, nigerose, neotrehalose, cellobiose, gentibiose, maltitol, maltotriitol, lactose, sucrose, erlose, selaginose, maltosyl glucoside, or isomaltosyl glucoside was prepared.
(§6) To each of the above solutions was added two units/g substrate of a purified specimen of α-isomaltosylglucosaccharide-forming enzyme from either Bacillus globisporus C9 obtained by the method in Experiment 4-2, Bacillus globisporus C11 obtained by the method in Experiment 7-2, Bacillus globisporus N75 obtained by the method in Experiment 11-2, or Arthrobacter globiformis A19 obtained by the method in Experiment 15-2, and the resulting each solution was adjusted to give a substrate concentration of 2% (w/v) and incubated at 30° C. and pH 6.0, except for using pH 8.4 for the enzyme from Arthrobacter globiformis A19, for 24 hours. The enzyme solutions before and after the enzymatic reactions were respectively analyzed on TLC disclosed in Experiment 1 to confirm whether the enzymes acted on these substrates.

[10] = tested on: α-isomaltosylglucosaccharide-forming enzyme; assay: Transfer-acceptor specificity, Enzyme of Strain A19; type: biochemical, Arthrobacter globiformis A19; conditions: acceptor 1.6%, PINE-DEX #100 donor 4%, one unit/g donor, 30° C., pH 8.4, 24 hours
How it was run: (§7)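 Each candidate acceptor at 1.6% was combined with 4% partial starch hydrolysate donor and 1 unit/g donor (d.s.b.) of purified enzyme. Incubation ran 24 h at 30 °C, pH 6.0 for the C9, C11 and N75 enzymes and pH 8.4 for A19. Transfer products were detected by GLC for mono- and disaccharide acceptors and HPLC for trisaccharide acceptors.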

[11] = tested on: α-isomaltosylglucosaccharide-forming enzyme; assay: Action on saccharides (substrates), Enzyme of Strain C11; type: biochemical, Bacillus globisporus C11; design: key: −: it showed no change; +: it showed a slight reduction of the color spot of the substrate and the formation of other reaction product; ++: it showed a high reduction of the color spot of the substrate and the formation of other reaction product; +++: it showed a substantial disappearance of the substrate spot and the formation of other reaction product; conditions: two units/g substrate, substrate 2% (w/v), 30° C., pH 6.0, 24 hours, TLC
Experimental: as §5, §6

[12] = tested on: α-isomaltosylglucosaccharide-forming enzyme; assay: Transfer-acceptor specificity, Enzyme of Strain C11; type: biochemical, Bacillus globisporus C11; conditions: acceptor 1.6%, PINE-DEX #100 donor 4%, one unit/g donor, 30° C., pH 6.0, 24 hours
[13] = tested on: α-isomaltosylglucosaccharide-forming enzyme; assay: Action on saccharides (substrates), Enzyme of Strain C9; type: biochemical, Bacillus globisporus C9; design: key: −: it showed no change; +: it showed a slight reduction of the color spot of the substrate and the formation of other reaction product; ++: it showed a high reduction of the color spot of the substrate and the formation of other reaction product; +++: it showed a substantial disappearance of the substrate spot and the formation of other reaction product; conditions: two units/g substrate, substrate 2% (w/v), 30° C., pH 6.0, 24 hours, TLC
Experimental: as §5, §6

[14] = tested on: α-isomaltosylglucosaccharide-forming enzyme; assay: Action on saccharides (substrates), Enzyme of Strain N75; type: biochemical, Bacillus globisporus N75; design: key: −: it showed no change; +: it showed a slight reduction of the color spot of the substrate and the formation of other reaction product; ++: it showed a high reduction of the color spot of the substrate and the formation of other reaction product; +++: it showed a substantial disappearance of the substrate spot and the formation of other reaction product; conditions: two units/g substrate, substrate 2% (w/v), 30° C., pH 6.0, 24 hours, TLC
Experimental: as §5, §6

[15] = tested on: α-isomaltosylglucosaccharide-forming enzyme; assay: Transfer-acceptor specificity, Enzyme of Strain C9; type: biochemical, Bacillus globisporus C9; conditions: acceptor 1.6%, PINE-DEX #100 donor 4%, one unit/g donor, 30° C., pH 6.0, 24 hours
How it was run: as §7

[16] = tested on: α-isomaltosylglucosaccharide-forming enzyme; assay: Transfer-acceptor specificity, Enzyme of Strain N75; type: biochemical, Bacillus globisporus N75; conditions: acceptor 1.6%, PINE-DEX #100 donor 4%, one unit/g donor, 30° C., pH 6.0, 24 hours
How it was run: as §7

SMILES: [Al+3] [Al^3+]
Relative activity (%) [1]: 94% | Relative activity (%) [2]: 37% | Relative activity (%) [3]: 93% | Relative activity (%) [4]: 89% | Relative activity (%) [5]: 103%

SMILES: [Ba+2] [Ba^2+]
Relative activity (%) [1]: 102% | Relative activity (%) [2]: 99% | Relative activity (%) [3]: 97% | influence on the enzyme activity, in words [6]: also inhibited | Relative activity (%) [6]: 65% | Relative activity (%) [4]: 90% | influence on the enzyme activity, in words ([7]; 1 mM): also inhibited | Relative activity (%) [7]: 65% | Relative activity (%) [8]: 84% | Relative activity (%) [5]: 102%

SMILES: [Ca+2] [Ca^2+]
influence on the enzyme activity, in words [1]: not activated | Relative activity (%) [1]: 100% | Relative activity (%) [2]: 106% | Relative activity (%) [3]: 103% | influence on the enzyme activity, in words [6]: activated | Relative activity (%) [6]: 109% | Relative activity (%) [4]: 91% | Relative activity (%) [7]: 115% | influence on the enzyme activity, in words [8]: activated | Relative activity (%) [8]: 108% | influence on the enzyme activity, in words [5]: not activated | Relative activity (%) [5]: 101%

SMILES: [Co+2] [Co^2+]
Relative activity (%) [1]: 92% | Relative activity (%) [2]: 93% | Relative activity (%) [3]: 91% | Relative activity (%) [6]: 96% | Relative activity (%) [4]: 89% | Relative activity (%) [7]: 100% | Relative activity (%) [8]: 93% | Relative activity (%) [5]: 103%

SMILES: [Cu+2] [Cu^2+]
influence on the enzyme activity, in words [1]: also inhibited | Relative activity (%) [1]: 15% | influence on the enzyme activity, in words ([2]; 1 mM): greatly inhibited | Relative activity (%) [2]: 0% | influence on the enzyme activity, in words ([3]; 1 mM): also inhibited | Relative activity (%) [3]: 2% | influence on the enzyme activity, in words [6]: greatly inhibited | Relative activity (%) [6]: 23% | Relative activity (%) [4]: 56% | Relative activity (%) [7]: 15% | influence on the enzyme activity, in words [8]: greatly inhibited | Relative activity (%) [8]: 7% | influence on the enzyme activity, in words [5]: also inhibited | Relative activity (%) [5]: 57%

SMILES: [Fe+2] [Fe^2+]
Relative activity (%) ([1]; listed as Fe^3+): 90% | Relative activity (%) [2]: 36% | Relative activity (%) ([2]; listed as Fe^3+): 35% | Relative activity (%) ([3]; listed as Fe^3+): 75% | Relative activity (%) ([4]; listed as Fe^3+): 88% | Relative activity (%) [8]: 82%

SMILES: [Mn+2] [Mn^2+]
influence on the enzyme activity, in words [6]: activated | Relative activity (%) [6]: 142% | Relative activity (%) [7]: 111% | influence on the enzyme activity, in words [8]: activated | Relative activity (%) [8]: 120% | Relative activity (%) [5]: 106%

SMILES: [Ni+2] [Ni^2+]
Relative activity (%) [1]: 91% | Relative activity (%) [2]: 46% | Relative activity (%) [3]: 87% | Relative activity (%) [4]: 89% | Relative activity (%) [5]: 102%

Enzymatic action, Enzyme of Strain A19 [9]: − | Enzymatic action, Enzyme of Strain C11 [11]: − | Enzymatic action, Enzyme of Strain C9 [13]: − | Enzymatic action, Enzyme of Strain N75 [14]: −
SMILES: OC[C@H]1O[C@@](CO)(O[C@H]2O[C@H](CO)[C@@H](O)[C@H](O)[C@H]2O)[C@@H](O)[C@@H]1O [Sucrose]
Product of transferring reaction, Enzyme of Stain A19 [10]: ++ (a saccharide-transferred product was detected in an amount over ten percent through transfer reaction to acceptor) | Product of transferring reaction, Enzyme of Strain C11 [12]: ++ (a saccharide-transferred product was detected in an amount over ten percent through transfer reaction to acceptor) | Product of transferring reaction, Enzyme of Strain C9 [15]: ++ (a saccharide-transferred product was detected in an amount over ten percent through transfer reaction to acceptor) | Product of transferring reaction, Enzyme of Strain N75 [16]: ++ (a saccharide-transferred product was detected in an amount over ten percent through transfer reaction to acceptor)

Enzymatic action, Enzyme of Strain A19 [9]: − | Enzymatic action, Enzyme of Strain C11 [11]: − | Enzymatic action, Enzyme of Strain C9 [13]: − | Enzymatic action, Enzyme of Strain N75 [14]: −
SMILES: OC[C@H]1O[C@H](O[C@H]2O[C@H](CO)[C@@H](O)[C@H](O)[C@H]2O)[C@H](O)[C@@H](O)[C@@H]1O [Trehalose]
Product of transferring reaction, Enzyme of Stain A19 [10]: ++ (a saccharide-transferred product was detected in an amount over ten percent through transfer reaction to acceptor) | Product of transferring reaction, Enzyme of Strain C11 [12]: ++ (a saccharide-transferred product was detected in an amount over ten percent through transfer reaction to acceptor) | Product of transferring reaction, Enzyme of Strain C9 [15]: ++ (a saccharide-transferred product was detected in an amount over ten percent through transfer reaction to acceptor) | Product of transferring reaction, Enzyme of Strain N75 [16]: ++ (a saccharide-transferred product was detected in an amount over ten percent through transfer reaction to acceptor)
